Consider 27 molecules from patent US20260217732A1, “WRN INHIBITOR” (SUZHOU PUHE BIOPHARMA CO., LTD., priority 2022, published 2026).

SMILES strings stand for the structures. Read-outs that look alike come from different tables or passages of the source. Where only a bound is given, the exact number is not on record here.

For test [1], the system named is SW48 colorectal cancer cells. The experiment in a line: 2D antiproliferation on MSI-H SW48 cells, CTG, 5 days. The conditions noted are these: for IC50 / inhibition at 38.15 pM / inhibition at 0.000152588 µM / inhibition at 0.000610352 µM / inhibition at 0.00244141 µM / inhibition at 0.00976562 µM / inhibition at 0.0390625 µM / inhibition at 0.15625 µM / inhibition at 0.625 µM / inhibition at […] / inhibition at 10 µM: Homo sapiens; for IC50: 120 h, SW48 MSI-H, 5 days; for inhibition at 38.15 pM: SW48, 0.038146973 nM; for inhibition at 0.000152588 µM: SW48, 0.152587891 nM; for inhibition at 0.000610352 µM: SW48, 0.610351563 nM; for inhibition at 0.00244141 µM: SW48, 2.44140625 nM; for inhibition at 0.00976562 µM: SW48, 9.765625 nM; for inhibition at 0.0390625 µM: SW48, 39.0625 nM; for inhibition at 0.15625 µM: SW48, 156.25 nM; for inhibition at 0.625 µM: SW48, 625 nM; for inhibition at […]: SW48, 2500 nM; for inhibition at 10 µM: SW48, 10000 nM. The test is classed as cell-based. Here is the method: The molecules of the present disclosure were tested for their anti-proliferative activity on MSI-H tumor cells.
SW48 colorectal cancer cells with MSI were cultured in a RMI1640 medium containing 10% FBS and 1% penicillin-streptomycin, and the mixture was cultured in a 37° C., 5% CO2 incubator. 40 μL of cell suspension was added to each well of a 384-well microplate. […] of compounds with different concentrations were added to each well using Echo, and the mixtures were cultured in a 37° C., 5% CO2 incubator for 5 days. 40 μL of CTG solution (Promega, Cat No. G7573) was added to each well and incubated in a 37° C., 5% CO2 incubator in the dark for 30 minutes. The luminescence value was read using an Envision multi-function microplate reader (Perkin Elmer, catalog number Envision 2104). The optical signal is proportional to the amount of ATP in the system, while the ATP content directly characterizes the number of viable cells in the system.

The subject of test [2] is HT-29 colorectal cancer cells. In words: 2D antiproliferation on MSS HT-29 cells, CTG, 5 days. Format: cell-based. As to conditions: Homo sapiens, 120 h, HT-29 MSS. The protocol: The molecules of the invention were tested for their anti-proliferative activities on MSS tumor cells.
HT-29 colorectal cancer cells with MSS were cultured in a McCoy's 5A medium containing 10% FBS and 1% penicillin-streptomycin in a 37° C., 5% CO2 constant temperature incubator. 40 μL of cell suspension was added to each well of a 384-well microplate. […] of compounds with different concentrations were added to each well using Echo. The mixtures were cultured in a 37° C., 5% CO2 constant temperature incubator for 5 days. 40 μL of CTG solution (Promega, Cat No. G7573) was added to each well, and the mixture was incubated in a 37° C., 5% CO2 constant temperature incubator for 30 minutes in the dark. The luminescence value was read using an Envision multi-function microplate reader (Perkin Elmer, catalog number Envision 2104). The optical signal is proportional to the amount of ATP in the system, while the ATP content directly characterizes the number of viable cells in the system.

[3] abbreviates: read-out: Average Value/Inhibition Rate.
The mark [4] stands for this setting: read-out: Test 1/Inhibition Rate.
Where [5] appears, read: read-out: Test 2/Inhibition Rate.

`CCc1c(N2CCN(C(=O)c3cc(C)ncn3)CC2)c(=O)n2nc(-c3cc4c(s3)COC4)nc2n1CC(=O)Nc1ccc(C(F)(F)F)cc1Cl` [A2]: in test [1], the IC50 is 848 nM.
Still for that read-out and setting: as for `CCc1c(N2CCN(C(=O)c3ncnc(C)c3O)CC2)c(=O)n2nc(-c3ccc(=O)n(C)c3)nc2n1CC(=O)Nc1ccc(C(F)(F)F)cc1Cl` [A3, reference compound], the figure is 2000 nM.
As for `CCc1c(N2CCN(C(=O)c3ncccc3O)CC2)c(=O)n2nc(C3=CCS(=O)(=O)CC3)nc2n1CC(=O)Nc1ccc(C(F)(F)F)cc1Cl` [P6], the IC50 in test [1] was 2060 nM; in test [2], greater than 10000 nM.
With `CCc1c(N2CCN(C(=O)c3ncnc(C)c3O)CC2)c(=O)n2nc(-c3cc4cn[nH]c4s3)nc2n1CC(=O)Nc1ccc(C(F)(F)F)cc1Cl` [P19], the “inhibitory activity on SW48 cells” value in test [1] (39 nM) is “high inhibitory activity”. This molecule returned an IC50 in test [1] of 82 nM. Moreover, in test [1] (setting [3]), the inhibition at 38.15 pM is -0.502%, the inhibition at 0.000152588 µM was -1.21%, the inhibition at 0.000610352 µM was 2.86% and the inhibition at 0.00244141 µM is -3.38%. In test [1] (setting [3]), the inhibition at 0.00976562 µM was -3.51%, the inhibition at 0.0390625 µM was 1.51%, the inhibition at 0.15625 µM amounted to 95.5% and the inhibition at 0.625 µM was found to be 97.6%. Further, in test [1] (setting [3]), the inhibition at […] was found to be 98.6% and the inhibition at 10 µM was 102%. Moreover, in test [1] (setting [4]), the inhibition at 38.15 pM is 2.13%, the inhibition at 0.000152588 µM is -2.38%, the inhibition at 0.000610352 µM was 3.47% and the inhibition at 0.00244141 µM is -2.94%. Besides, in test [1] (setting [4]), the inhibition at 0.00976562 µM is -1.53%, the inhibition at 0.0390625 µM is 3.47%, the inhibition at 0.15625 µM worked out at 96% and the inhibition at 0.625 µM stood at 96.9%. In addition, in test [1] (setting [4]), the inhibition at […] was 99.4% and the inhibition at 10 µM was 103%. In test [1] (setting [5]), the inhibition at 38.15 pM is -3.13%, the inhibition at 0.000152588 µM is -0.0356%, the inhibition at 0.000610352 µM turned out to be 2.26% and the inhibition at 0.00244141 µM was -3.82%. In addition, in test [1] (setting [5]), the inhibition at 0.00976562 µM was -5.5%, the inhibition at 0.0390625 µM is -0.452%, the inhibition at 0.15625 µM turned out to be 95% and the inhibition at 0.625 µM is 98.4%. In addition, in test [1] (setting [5]), the inhibition at […] turned out to be 97.8% and the inhibition at 10 µM worked out at 102%. The IC50 in test [2] was greater than 10000 nM.
In the case of `CCc1c(N2CCN(C(=O)c3ncnc(C)c3O)CC2)c(=O)n2nc(-c3cc4c(s3)COC4)nc2n1CC(=O)Nc1ccc(Cl)cc1Cl` [P26], the IC50 in test [1] was 41 nM; in test [2] it was greater than 10000 nM.
The like results for `CCc1ccc(NC(=O)Cn2c(CC)c(N3CCN(C(=O)c4ncnc(C)c4O)CC3)c(=O)n3nc(-c4cc5c(s4)COC5)nc23)c(C)c1` [P27] were, in that order, 46 nM and greater than 10000 nM.
For `CCc1c(N2CCN(C(=O)c3ncccc3O)CC2)c(=O)n2nc(-c3cc4c(s3)COC4)nc2n1CC(=O)Nc1ccc(C(F)(F)F)cc1` [P28] the same measures were 136 nM and greater than 10000 nM.
The like results for `CCc1c(N2CCN(C(=O)c3ncnc(C)c3O)CC2)c(=O)n2nc(-c3cc4c(s3)COC4)nc2n1CC(=O)Nc1ccc(C(F)(F)F)c(F)c1C` [P30] were, in that order, 33 nM and greater than 10000 nM.
In the case of `CCc1c(N2CCN(C(=O)c3ncnc(C)c3O)CC2)c(=O)n2nc(-c3cc4c(s3)COC4)nc2n1CC(=O)Nc1cc(F)c(C(F)(F)F)cc1C` [P31], the IC50 in test [1] was 49 nM; in test [2], greater than 10000 nM.
The like results for `CCc1c(N2CCN(C(=O)c3ncnc(C)c3O)CC2)c(=O)n2nc(-c3sc(CO)nc3C)nc2n1CC(=O)Nc1ccc(C(F)(F)F)cc1Cl` [P34] were, in that order, 142 nM and greater than 10000 nM.
The like results for `CCc1c(N2CCN(C(=O)c3ncnc(C)c3O)CC2)c(=O)n2nc(-c3cnc(CO)s3)nc2n1CC(=O)Nc1ccc(C(F)(F)F)cc1Cl` [P35] were, in that order, 199 nM and greater than 10000 nM.
The like results for `CCc1c(N2CCN(C(=O)c3ncnc(C)c3O)CC2)c(=O)n2nc(-c3cnc(CO)s3)nc2n1CC(=O)Nc1ccc(C(F)(F)F)c2ccsc12` [P36] were, in that order, 561 nM and greater than 10000 nM.
For `CCc1c(N2CCN(C(=O)c3ncnc(C)c3O)CC2)c(=O)n2nc(-c3ccn4nccc4c3)nc2n1CC(=O)Nc1ccc(C(F)(F)F)cc1Cl` [P37], the IC50 in test [1] is 46 nM; in test [2], greater than 10000 nM.
For the molecule `CCc1c(N2CCN(C(=O)c3ncnc(C)c3O)CC2)c(=O)n2nc(-c3ccc4nccn4c3)nc2n1CC(=O)Nc1ccc(C(F)(F)F)cc1Cl` [P38], the IC50 in test [1] is 82 nM; in test [2] it was greater than 10000 nM.
Regarding `CCc1c(N2CCN(C(=O)c3ncnc(C)c3O)CC2)c(=O)n2nc(-c3ccc4nncn4c3)nc2n1CC(=O)Nc1ccc(C(F)(F)F)cc1Cl` [P39], the IC50 in test [1] and in test [2] was greater than 10000 nM each time.
In test [1], `CCc1c(N2CCN(C(=O)c3ncnc(C)c3O)CC2)c(=O)n2nc(-c3cc4c(s3)COCC4)nc2n1CC(=O)Nc1ccc(C(F)(F)F)cc1Cl` [P40] showed an IC50 of 113 nM.
For the molecule `CCc1c(N2CCN(C(=O)c3ncnc(C)c3O)CC2)c(=O)n2nc(-c3ncc(CO)s3)nc2n1CC(=O)Nc1ccc(C(F)(F)F)cc1Cl` [P43], the IC50 in test [1] was 593 nM.
Still for that read-out and setting: as for `CCc1c(N2CCN(C(=O)c3ncnc(C)c3O)CC2)c(=O)n2nc(-c3ccn4nccc4c3)nc2n1CC(=O)Nc1ccc(C(F)(F)F)cc1C` [P48], the figure is 32 nM.
The same measure, in the same setting: with `CCc1c(N2CCN(C(=O)c3ncnc(C)c3O)CC2)c(=O)n2nc(-c3cnn(S(C)(=O)=O)c3)nc2n1CC(=O)Nc1ccc(C(F)(F)F)cc1Cl` [P49] the figure was 574 nM; with `CCc1c(N2CCN(C(=O)c3ncnc(C)c3O)CC2)c(=O)n2nc(-c3cc4cn[nH]c4s3)nc2n1CC(=O)Nc1ccc(C(F)(F)F)cc1F` [P51], 242 nM.
Same read-out and setting: with `CCc1c(N2CC3CC(C2)N3C(=O)c2ncnc(C)c2O)c(=O)n2nc(-c3cc4c(s3)COC4)nc2n1CC(=O)Nc1ccc(C(F)(F)F)cc1C` [P54] the figure was 2140 nM; with `CCc1c(N2CCN(C(=O)c3ncnc(C)c3O)C3(CC3)C2)c(=O)n2nc(-c3cc4c(s3)COC4)nc2n1CC(=O)Nc1ccc(C(F)(F)F)cc1C` [P55], 672 nM; with `CCc1c(N2CCN(C(=O)c3ncnc(C)c3O)CC2)c(=O)n2nc(-c3cc4c(s3)COC4)nc2n1CC(=O)Nc1ccc(C(F)(F)F)c2sccc12` [P56], 36 nM.
In test [1], `CCc1c(N2CCN(C(=O)c3ncnc(C)c3O)CC2)c(=O)n2nc(-c3cc4c(s3)COC4)nc2n1CC(=O)Nc1ccc(-c2cccnc2)cc1Cl` [P61] gave an IC50 of 8850 nM. Against the preceding molecule, the IC50 is about 250-fold higher.
On the same count and under the same terms, as for `CCc1c(N2CCN(C(=O)c3ncnc(C)c3O)CC2)c(=O)n2nc(-c3cn4cncc4s3)nc2n1CC(=O)Nc1ccc(C(F)(F)F)cc1C` [P64], the figure is 530 nM.
On the same count and under the same terms, as for `[2H]C([2H])([2H])c1ncnc(C(=O)N2CCN(c3c(CC)n(CC(=O)Nc4ccc(C(F)(F)F)cc4Cl)c4nc(-c5cc6c(s5)COC6)nn4c3=O)CC2)c1O` [P68], the figure is 28 nM; as for `[2H]C1([2H])N(C(=O)c2ncnc(C)c2O)C([2H])([2H])C([2H])([2H])N(c2c(CC)n(CC(=O)Nc3ccc(C(F)(F)F)cc3C)c3nc(-c4cc5c(s4)COC5)nn3c2=O)C1([2H])[2H]` [P70], 34 nM.
